# Molecular target: T1, Human KLK1 (Homo sapiens, UniProt P06870)
# T1 construct: purchased Callbiochem (Calbiochem)
# Assay: Determination of the IC50 for KLK1 (fluorogenic substrate H-DVal-Leu-Arg-AFC)
# Type: biochemical
# Settings: 37° C.
# Method in brief: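 IC50 values reflect residual human KLK1 activity, read as initial rate from optical absorbance change at 410 nm. Incubations ran at 37° C with H-DVal-Leu-Arg-AFC as substrate across a compound concentration series.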
# T1 sequence (P06870 25-262): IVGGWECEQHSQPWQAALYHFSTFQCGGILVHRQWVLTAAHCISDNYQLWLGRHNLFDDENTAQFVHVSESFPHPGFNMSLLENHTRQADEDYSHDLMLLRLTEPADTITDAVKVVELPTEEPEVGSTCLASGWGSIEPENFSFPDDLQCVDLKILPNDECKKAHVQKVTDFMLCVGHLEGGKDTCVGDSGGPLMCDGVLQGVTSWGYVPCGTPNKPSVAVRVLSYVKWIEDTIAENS
row,SMILES,IC50
1,"Cc1cc[nH]c1C(=O)N[C@@H](Cc1cc(F)cc(F)c1)C(=O)NCc1ccc(N)nc1 [Example 270, 3-Methyl-1H-pyrrole-2-carboxylic acid [(S)-1-[(6-amino-pyridin-3-ylmethyl)-carbamoyl]-2-(3,5-difluoro-phenyl)-ethyl]-amide]",20.9 nM
2,"COc1ccc2[nH]c(C(=O)N[C@@H](Cc3cccc(C(F)(F)F)c3)C(=O)NCc3ccc(N)nc3)cc2c1 [Example 308, 5-Methoxy-1H-indole-2-carboxylic acid [(S)-1-[(6-amino-pyridin-3-ylmethyl)-carbamoyl]-2-(3-trifluoromethyl-phenyl)-ethyl]-amide]",15.6 nM
3,"Cc1ccc(-c2ccc(C(=O)N[C@@H](Cc3ccc(Cl)c(Cl)c3)C(=O)NCc3ccc(N)nc3)[nH]2)cc1 [Example 296, 5-p-Tolyl-1H-pyrrole-2-carboxylic acid [(S)-1-[(6-amino-pyridin-3-ylmethyl)-carbamoyl]-2-(3,4-dichloro-phenyl)-ethyl]-amide]",40.9 nM
4,"CCN(CC)C(C)C(=O)N(C)C(CC1CCCCC1)C(=O)NCc1ccc(N)nc1 [Example 438, S)—N-{(S)-1-[(6-Amino-pyridin-3-ylmethyl)-carbamoyl]-2-cyclohexyl-ethyl}-2-diethylamino-N-methyl-propionamide]",5.4 nM
5,"Cc1cc[nH]c1C(=O)N[C@@H](Cc1ccccc1F)C(=O)NCc1ccc(N)nc1 [Example 265, 3-Methyl-1H-pyrrole-2-carboxylic acid [(S)-1-[(6-amino-pyridin-3-ylmethyl)-carbamoyl]-2-(2-fluoro-phenyl)-ethyl]-amide]",21.6 nM
6,"C[C@@H](C(=O)N[C@@H](Cc1ccc(F)c(F)c1)C(=O)NCc1ccc(N)nc1)N(C)CC1CCCCC1 [Example 343, (S)—N-[(S)-1-[(6-Amino-pyridin-3-ylmethyl)-carbamoyl]-2-(3,4-difluoro-phenyl)-ethyl]-2-(cyclohexylmethyl-methyl-amino)-propionamide]",91 nM
7,"CCN(C)[C@@H](C)C(=O)N[C@@H](Cc1ccc(F)c(F)c1)C(=O)NCc1ccc(N)nc1 [Example 345, (S)—N-[(S)-1-[(6-Amino-pyridin-3-ylmethyl)-carbamoyl]-2-(3,4-difluoro-phenyl)-ethyl]-2-(ethyl-methyl-amino)-propionamide]",7.7 nM
8,"Cc1nc(N)ccc1CNC(=O)[C@H](Cc1ccc(F)c(F)c1)NC(=O)[C@H]1CCCN1C [Example 205, (R)-1-Methyl-pyrrolidine-2-carboxylic acid [(S)-1-[(6-amino-2-methyl-pyridin-3-ylmethyl)-carbamoyl]-2-(3,4-difluoro-phenyl)-ethyl]-amide]",6.7 nM
9,"CC(C(=O)N[C@@H](Cc1cccc(Cl)c1)C(=O)NCc1ccc(N)nc1)N1CCCCC1 (stereo partly drawn) [Example 411, N-[(S)-1-[(6-Amino-pyridin-3-ylmethyl)-carbamoyl]-2-(3-chloro-phenyl)-ethyl]-2-piperidin-1-yl-propionamide]",12.7 nM
10,"Nc1ccc(CNC(=O)[C@H](Cc2ccc(F)cc2)NC(=O)c2cc3cc(F)ccc3[nH]2)cn1 [Example 331, 5-Fluoro-1H-indole-2-carboxylic acid [(S)-1-[(6-amino-pyridin-3-ylmethyl)-carbamoyl]-2-(4-fluoro-phenyl)-ethyl]-amide]",32 nM
11,"CCC(C)[C@@H](N)C(=O)N[C@@H](Cc1cc(F)c(F)cc1F)C(=O)NCc1ccc(N)nc1 (stereo partly drawn) [Example 38, (R)-2-Amino-3-methyl-pentanoic acid [(S)-1-[(6-amino-pyridin-3-ylmethyl)-carbamoyl]-2-(2,4,5-trifluoro-phenyl)-ethyl]-amide]",9.2 nM
12,"Cc1nc(N)ccc1CNC(=O)[C@H](Cc1cccc2ccccc12)NC(=O)c1cc2ccccc2[nH]1 [Example 303, 1H-Indole-2-carboxylic acid {(S)-1-[(6-amino-2-methyl-pyridin-3-ylmethyl)-carbamoyl]-2-naphthalen-1-yl-ethyl}-amide]",240 nM
13,"Cc1cc(C)c(C(=O)N[C@@H](Cc2csc3ccccc23)C(=O)NCc2ccc(N)nc2)[nH]1 [Example 250, 3,5-Dimethyl-1H-pyrrole-2-carboxylic acid {(S)-1-[(6-amino-pyridin-3-ylmethyl)-carbamoyl]-2-benzo[b]thiophen-3-yl-ethyl}-amide]",0.8 nM
14,"CN1CCC[C@@H]1C(=O)N[C@@H](Cc1ccccc1C(F)(F)F)C(=O)NCc1ccc(N)nc1 [Example 111, (R)-1-Methyl-pyrrolidine-2-carboxylic acid [(S)-1-[(6-amino-pyridin-3-ylmethyl)-carbamoyl]-2-(2-trifluoromethyl-phenyl)-ethyl]-amide]",15 nM
15,"CC(C)N1CCCC[C@@H]1C(=O)N[C@@H](Cc1ccc(F)c(F)c1)C(=O)NCc1ccc(N)nc1 [Example 146, (R)-1-Isopropyl-piperidine-2-carboxylic acid [(S)-1-[(6-amino-pyridin-3-ylmethyl)-carbamoyl]-2-(3,4-difluoro-phenyl)-ethyl]-amide]",102 nM
16,"Cc1cc[nH]c1C(=O)N[C@@H](Cc1ccccc1Cl)C(=O)NCc1ccc(N)nc1 [Example 262, 3-Methyl-1H-pyrrole-2-carboxylic acid [(S)-1-[(6-amino-pyridin-3-ylmethyl)-carbamoyl]-2-(2-chloro-phenyl)-ethyl]-amide]",28.3 nM

row,SMILES,IC50
1,"Cc1nc(N)ccc1CNC(=O)[C@H](Cc1ccc(F)cc1)NC(=O)[C@H]1CCCN1C [Example 204, (R)-1-Methyl-pyrrolidine-2-carboxylic acid [(S)-1-[(6-amino-2-methyl-pyridin-3-ylmethyl)-carbamoyl]-2-(4-fluoro-phenyl)-ethyl]-amide]",5.9 nM
2,"Nc1ccc(CNC(=O)[C@H](Cc2ccc(Cl)c(Cl)c2)NC(=O)[C@H]2CCCN2)cn1 [Example 55, (R)-Pyrrolidine-2-carboxylic acid [(S)-1-[(6-amino-pyridin-3-ylmethyl)-carbamoyl]-2-(3,4-dichloro-phenyl)-ethyl]-amide]",0.7 nM
3,"Cc1ccc(-c2ccc(C(=O)N[C@@H](Cc3cccc4ccccc34)C(=O)NCc3ccc(N)nc3)[nH]2)cc1 [Example 292, 5-p-Tolyl-1H-pyrrole-2-carboxylic acid {(S)-1-[(6-amino-pyridin-3-ylmethyl)-carbamoyl]-2-naphthalen-1-yl-ethyl}-amide]",31.5 nM
4,"CCC(C)[C@@H](N)C(=O)N[C@@H](C(=O)NCc1ccc(N)nc1)C(C1CCCCC1)C1CCCCC1 (stereo partly drawn) [Example 214, (R)-2-Amino-3-methyl-pentanoic acid {(R)-1-[(6-amino-pyridin-3-ylmethyl)-carbamoyl]-2,2-dicyclohexyl-ethyl}-amide]",16.9 nM
5,"NCC(=O)N[C@@H](CC1CCCC2CCCCC21)C(=O)NCc1ccc(N)nc1 (stereo partly drawn) [Example 17, (S)-2-(2-Amino-acetylamino)-N-(6-amino-pyridin-3-ylmethyl)-3-(decahydro-naphthalen-1-yl)-propionamide]",211 nM
6,"Cc1cccc(C[C@H](NC(=O)[C@H]2CCCN2C(C)C)C(=O)NCc2ccc(N)nc2)c1 [Example 122, (R)-1-Isopropyl-pyrrolidine-2-carboxylic acid {(S)-1-[(6-amino-pyridin-3-ylmethyl)-carbamoyl]-2-m-tolyl-ethyl}-amide]",1.8 nM
7,"CC(C)N1CCC[C@@H]1C(=O)N[C@@H](Cc1ccccc1C(F)(F)F)C(=O)NCc1ccc(N)nc1 [Example 128, (R)-1-Isopropyl-pyrrolidine-2-carboxylic acid [(S)-1-[(6-amino-pyridin-3-ylmethyl)-carbamoyl]-2-(2-trifluoromethyl-phenyl)-ethyl]-amide]",7.6 nM
8,"Cc1cc(C(=O)O)[nH]c1C(=O)N[C@@H](Cc1cccc(C(F)(F)F)c1)C(=O)NCc1ccc(N)nc1 [Example 276, 5-[(S)-1-[(6-Amino-pyridin-3-ylmethyl)-carbamoyl]-2-(3-trifluoromethyl-phenyl)-ethylcarbamoyl]-4-methyl-1H-pyrrole-2-carboxylic acid]",30.5 nM
9,"Nc1ccc(CNC(=O)[C@H](Cc2ccc(F)c(F)c2)NC(=O)[C@H]2CCCN2Cc2cccc(Cl)c2)cn1 [Example 143, (R)-1-(3-Chloro-benzyl)-pyrrolidine-2-carboxylic acid [(S)-1-[(6-amino-pyridin-3-ylmethyl)-carbamoyl]-2-(3,4-difluoro-phenyl)-ethyl]-amide]",21 nM
10,"CCC(C)[C@H](C(=O)N[C@@H](Cc1ccc(F)c(F)c1)C(=O)NCc1ccc(N)nc1)N(C)C (stereo partly drawn) [Example 178, (R)-2-Dimethylamino-3-methyl-pentanoic acid [(S)-1-[(6-amino-pyridin-3-ylmethyl)-carbamoyl]-2-(3,4-difluoro-phenyl)-ethyl]-amide]",15.9 nM
11,"CCN1CCC[C@@H]1C(=O)N[C@@H](Cc1ccc(F)cc1)C(=O)NCc1ccc(N)nc1 [Example 136, (R)-1-Ethyl-pyrrolidine-2-carboxylic acid [(S)-1-[(6-amino-pyridin-3-ylmethyl)-carbamoyl]-2-(4-fluoro-phenyl)-ethyl]-amide]",8.6 nM
12,"CN1C[C@H](O)C[C@@H]1C(=O)N[C@@H](Cc1ccc(F)c(F)c1)C(=O)NCc1ccc(N)nc1 [Example 148, (2R,4R)-4-Hydroxy-1-methyl-pyrrolidine-2-carboxylic acid [(S)-1-[(6-amino-pyridin-3-ylmethyl)-carbamoyl]-2-(3,4-difluoro-phenyl)-ethyl]-amide]",55.7 nM
13,"CCC(C)[C@@H](N)C(=O)N[C@@H](Cc1ccccc1Cl)C(=O)NCc1ccc(N)nc1 (stereo partly drawn) [Example 24, (R)-2-Amino-3-methyl-pentanoic acid [(S)-1-[(6-amino-pyridin-3-ylmethyl)-carbamoyl]-2-(2-chloro-phenyl)-ethyl]-amide]",27.8 nM
14,"CN(C)C(Cc1ccccc1)C(=O)NC(Cc1cccc(Cl)c1)C(=O)NCc1ccc(N)nc1 [Example 407, (R)—N-[(S)-1-[6-Amino-pyridin-3-ylmethyl)-carbamoyl]-2-(3-chloro-phenyl)-ethyl]-2-dimethylamino-3-phenyl-propionamide]",17 nM
15,"Cc1nc(N)ccc1CNC(=O)[C@H](Cc1cccc(C(F)(F)F)c1)NC(=O)c1cc2ccccc2[nH]1 [Example 309, 1H-Indole-2-carboxylic acid [(S)-1-[(6-amino-2-methyl-pyridin-3-ylmethyl)-carbamoyl]-2-(3-trifluoromethyl-phenyl)-ethyl]-amide]",42.3 nM

# From patent US20100076015A1, “Aminopyridine Derivatives” (VANTIA LIMITED, priority 2008, published 2010)
